Test [1] relates to spermatozoal endoprotease acrosin. To be noted: results of Borin et al., Hoppe-Seyler's Z. Physiol. Chem. 362, 1435-1445, 1981; cited from earlier work.
A further test deals with F Xa (Homo sapiens, UniProt P00742). Nature of the test: Inhibitory action against F Xa, analogous procedure (substrate Bzl-Ile-Glu-Gly-Arg pNA). The class given is biochemical. The settings on record: final inhibitor concentration 0.6 mmol/1. The text has this:
F Xa substrate: Bzl-Ile-Glu-Gly-Arg pNA (50% of the Glu as the methyl ester) (c=3 mmol/liter)

The next test deals with human α-thrombin (Homo sapiens, UniProt P00734).
In a further test the target is plasmin (Homo sapiens, UniProt P00747). Kind of test: Inhibitory action against plasmin, analogous procedure (substrate D-norvalylcyclohexylalanylarginyl paranitroanilide). In kind it is biochemical. The settings on record: final inhibitor concentration 0.6 mmol/1. The text has this: (plasmin substrate: D-norvalylcyclohexylalanylarginyl paranitroanilide (c=3 mmol/l)).

Here are results for five compounds from US4713369A, “Oligopeptidylargininol derivatives and their homologs, a process for their preparation, their use and agents containing them” (Behringwerke Aktiengellschaft, priority 1985, dated 1987).

Where two headings read alike, the source gives them in different places.

The term IC50 denotes the concentration at which inhibition is half-maximal.

Chain of F Xa (P00742 235-488 limits assumed): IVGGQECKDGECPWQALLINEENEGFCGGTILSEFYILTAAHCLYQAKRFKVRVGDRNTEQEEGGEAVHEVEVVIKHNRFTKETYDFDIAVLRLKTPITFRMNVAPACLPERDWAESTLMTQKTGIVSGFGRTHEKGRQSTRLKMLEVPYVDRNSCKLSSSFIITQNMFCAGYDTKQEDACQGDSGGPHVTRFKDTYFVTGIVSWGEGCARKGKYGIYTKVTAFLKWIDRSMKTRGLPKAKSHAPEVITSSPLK
Chain of F Xa (P00742 41-179 partner limits assumed): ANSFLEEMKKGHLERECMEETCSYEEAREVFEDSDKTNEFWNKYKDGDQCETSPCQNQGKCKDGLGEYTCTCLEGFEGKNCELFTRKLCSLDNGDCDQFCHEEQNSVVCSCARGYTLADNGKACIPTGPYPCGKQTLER
Chain of plasmin (P00747 581-810 limits assumed, species assumed): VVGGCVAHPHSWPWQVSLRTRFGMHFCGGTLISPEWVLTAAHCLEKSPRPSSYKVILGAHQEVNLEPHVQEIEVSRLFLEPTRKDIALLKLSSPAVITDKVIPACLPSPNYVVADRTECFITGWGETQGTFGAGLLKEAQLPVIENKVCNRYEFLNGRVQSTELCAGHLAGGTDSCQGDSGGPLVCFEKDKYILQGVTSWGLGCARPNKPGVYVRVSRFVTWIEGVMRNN
Chain of plasmin (P00747 97-580 partner limits assumed, species assumed): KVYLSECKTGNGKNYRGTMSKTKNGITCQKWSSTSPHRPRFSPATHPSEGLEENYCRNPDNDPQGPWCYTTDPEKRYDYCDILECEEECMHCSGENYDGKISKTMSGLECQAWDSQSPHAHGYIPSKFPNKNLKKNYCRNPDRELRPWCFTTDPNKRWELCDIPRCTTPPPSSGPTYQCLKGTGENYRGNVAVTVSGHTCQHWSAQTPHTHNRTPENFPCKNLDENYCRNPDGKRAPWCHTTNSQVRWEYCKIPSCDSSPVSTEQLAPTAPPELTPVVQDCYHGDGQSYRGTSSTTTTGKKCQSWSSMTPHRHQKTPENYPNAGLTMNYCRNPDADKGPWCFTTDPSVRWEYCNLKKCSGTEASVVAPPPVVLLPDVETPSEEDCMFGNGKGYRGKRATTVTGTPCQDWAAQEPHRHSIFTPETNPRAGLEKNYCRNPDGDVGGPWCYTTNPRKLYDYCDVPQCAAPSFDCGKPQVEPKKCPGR
Description for human α-thrombin: Test procedure: 700 μl of tris buffer, pH 8.2, are incubated with 100 μl of human α-thrombin (0.28 UI) and 100 μl of inhibitor solution at 37° C. for 5 min. After addition of 100 μl of Tos-Gly-Pip-Arg paranitroanilide (c×3 mMol/l), the extinction at 405 nm is measured.

For the compound `CC(=O)O.CC(C)C[C@H](NC(=O)OC(C)(C)C)C(=O)N[C@@H](CC(C)C)C(=O)N[C@H](C=O)CCCNC(=N)N.O` [Boc-Leu-Leu-argininal . acetic acid . H2 O], the “inhibition of acrosin (in words)” value in test [1] is on record as “very active inhibitor”.

Turning to `N=C(N)NCCC[C@@H](CO)NC(=O)[C@@H]1CCCN1C(=O)[C@H](N)Cc1ccccc1.O=C(O)C(F)(F)F.O=C(O)C(F)(F)F` [D-Phe-Pro-argininol ditrifluoroacetate, D-Phe-Pro-Arg-CH2 OH×2CF3 COOH], the “F X a inhibition” value at F Xa is 49 % inhibition. For the same compound, the “inhibitory action on thrombin (in words)” value on human α-thrombin is “potent inhibition of thrombin”; against human α-thrombin (listed as D-phenylalanyl-L-prolyl-L-argininol), “especially strong”. The same compound yielded a Plasmin inhibition at plasmin of 67 % inhibition.

With `CC(C)(C)OC(=O)N[C@H](Cc1ccccc1)C(=O)N1CCC[C@H]1C(=O)N[C@H](CO)CCCNC(=N)N` [Boc-D-Phe-Pro-Arg CH2 --OH], at human α-thrombin (relative to H-D-Phe-Pro-Arg CH2 --OH), the “action in the thrombin inhibition test, times less than that of H-D-Phe-Pro-Arg CH2 --OH” value was “about 1,000 times”.

For the compound `N=C(N)NCCCCCC(=O)Oc1ccc(CCC(=O)O)cc1` [4-carboxyethylphenyl ε-guanidinocaproate, reference compound], half-maximal inhibition at human α-thrombin (IC50) required 3.65 ± 0.05 µM.

In the case of `Cl.Cl.NC(N)=NCCC[C@@H](COC(=O)c1ccc([N+](=O)[O-])cc1)NC(=O)[C@@H]1CCCN1C(=O)[C@H](N)Cc1ccccc1` [D-Phe-Pro-argininol-4-nitrobenzoate dihydrochloride], at human α-thrombin, the “inhibitory action on thrombin (in words)” value is “approximately corresponded to that of 4-carboxyethylphenylε-guanidinocaproate”.
